# Measurements published in US9120787B2, “HIV replication inhibitors” (priority 2011, dated 2015).
# Like-named read-outs stand apart in the source and are kept apart here.
# Columns and labels:
# [1] = Cytotoxicity by MTS staining in uninfected MAGI-CCR5 cells; assay type: cell-based; conditions: human, read-out: TC50
# How it was run: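 Uninfected MAGI-CCR5 cells (HeLa-CD4-LTR-β-gal derived, expressing CD4/CCR5) plated at 1.0×10^4 cells/well the day before, then exposed to compounds at six concentrations in triplicate alongside parallel infected assays. Viability read by MTS staining.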
# HIV-1 K103N, Y181C (A17) = HIV-1 K103N, Y181C (A17) replication in PBMCs; assay type: cell-based; conditions: for IC50: Human immunodeficiency virus 1, PBMC; for TI (TC50/IC50): Virus A17 (K103N, Y181C) in PBMCs; for effect of RT changes K103N and Y181C on anti-viral activity: virus with K103 to Asparagine and Y181 to cysteine
# Description: In another embodiment of the present disclosure compounds are provided which inhibit the replication of HIV strains resistant to NNRTIs. Compounds in this disclosure inhibit, A17, an HIV-1 virus with mutations in the RT non-nucleoside binding pocket, K103N and Y181C, in a dose-dependent susceptibility testing manner.
# The asparagine variation at residue 103 and the cysteine variation at residue 181 are known to inhibit the activity of the NNRTI's.
# Evaluation Dihydropyrimidines vs. HIV-1Ba-L and HIV-1 K103N, Y181C in PBMCs
# HIV-1Ba-L [2] = assay: Inhibition of virus replication in MAGI-CCR5 cells (β-galactosidase reporter); assay type: cell-based; conditions: HIV-1Ba-L in MAGI-CCR5 cells; for IC50: Human immunodeficiency virus 1, 48 hours, β-galactosidase reporter expression, read-out: IC50
# How it was run: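 HeLa-derived MAGI-CCR5 cells (high CD4/CCR5, HIV-1 LTR-driven β-galactosidase) plated at 1.0×10^4 cells/well the day before infection with HIV-1Ba-L. Compounds tested at six concentrations in triplicate, with parallel uninfected plates for cytotoxicity.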
# [3] = Cytotoxicity by MTS staining in PBMCs; assay type: cell-based; conditions: human, peripheral blood mononuclear cells (PBMC), read-out: TC50
# Protocol: Cytotoxicity was assessed by MTS staining. At assay end-point, PBMC were stained with the addition of […] of the soluble tetrazolium-based dye MTS to determine cell viability and quantify compound toxicity. The plates were incubated 4 to 6 hrs at 37° C. Following incubation, the activity was assessed by reading absorbance values at 490/650 nm.
# HIV-1Ba-L [4] = assay: HIV-1Ba-L replication in PBMCs (supernatant RT end-point)
# How it was run: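 Pooled PHA-stimulated human PBMCs (5×10^4 cells/well) were infected with HIV-1Ba-L at MOI 0.1 with nine ½-log compound dilutions and cultured seven days at 37° C. Supernatant RT activity was measured by ^3H-TTP incorporation on poly rA:oligo dT (60 minutes, 37° C) and counted by scintillation.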
# [5] = Human immunodeficiency virus 1, BAL, PBMC
# [6] = Human immunodeficiency virus 1, PBMC, 168 h
# [7] = Virus Ba-L in PBMCs (Ba-L vs A17 comparison)
SMILES,CC50 at 48 h [1],"IC50 (HIV-1 K103N, Y181C (A17))","TI (TC50/IC50) (HIV-1 K103N, Y181C (A17))","effect of RT changes K103N and Y181C on anti-viral activity (HIV-1 K103N, Y181C (A17))",TI (TC50/IC50) (HIV-1Ba-L [2]),IC50 (HIV-1Ba-L [2]),CC50 at 7 days ([3]; A17 line of the table),CC50 at 7 days ([3]; Ba-L line of the table),CC50 at 7 days ([3]; MTS staining),TI (TC50/IC50) (HIV-1Ba-L [4]; HIV-1Ba-L in PBMCs),IC50 (HIV-1Ba-L [4]; [5]),IC50 (HIV-1Ba-L [4]; [6]),TI (TC50/IC50) (HIV-1Ba-L [4]; [7])
CC1=C(c2nc(-c3ccc(C#N)cc3)cs2)C(c2cc3ccccc3n2C)NC(=O)N1 (centres unmarked) [Example 11],≥ 100 µM,> 100 µM,D (D < 10.0),inhibit the anti-viral activity,A (A = TI (TC50/IC50) ≧ 100.0),< 1 µM,≥ 100 µM,≥ 100 µM,≥ 100 µM,A (A = TI (TC50/IC50) ≧100.0),< 1 µM,< 1 µM,A (A = TI (TC50/IC50) ≧ 100.0)
CC1=C(c2nc(-c3ccc(C#N)cc3)cs2)C(c2ccc(F)nc2)NC(=O)N1 (centres unmarked) [Example 19],≥ 100 µM,> 100 µM,D (D < 10.0),inhibit the anti-viral activity,B (B < 100.0-50.0),1 to 5 µM,≥ 100 µM,≥ 100 µM,≥ 100 µM,A (A = TI (TC50/IC50) ≧100.0),< 1 µM,< 1 µM,A (A = TI (TC50/IC50) ≧ 100.0)
CC1=C(c2nc(-c3ccc(C#N)cc3)cs2)C(c2cnc3ccccc3n2)NC(=O)N1 (centres unmarked) [Example 21],≥ 100 µM,> 100 µM,D (D < 10.0),,D (D < 10.0),> 100 µM,≥ 100 µM,≥ 100 µM,≥ 100 µM,D (D < 10.0),> 100 µM,> 100 µM,D (D < 10.0)
COc1ccc(-c2csc(C3=C(C)NC(=O)NC3c3ccc(F)c([N+](=O)[O-])c3)n2)cc1 (centres unmarked) [Example 42],≥ 100 µM,5 to 100 µM,D (D < 10.0),,D (D < 10.0),> 100 µM,≥ 100 µM,≥ 100 µM,≥ 100 µM,D (D < 10.0),5 to 100 µM,5 to 100 µM,D (D < 10.0)
CC1=C(c2nc(-c3ccc(C#N)cc3C)cs2)C(c2cc3ccccc3n2C)NC(=O)N1 (centres unmarked) [Example 87],≥ 100 µM,5 to 100 µM,C (C < 50.0-10.0),,A (A = TI (TC50/IC50) ≧ 100.0),< 1 µM,≥ 100 µM,≥ 100 µM,≥ 100 µM,A (A = TI (TC50/IC50) ≧100.0),< 1 µM,< 1 µM,A (A = TI (TC50/IC50) ≧ 100.0)
CC1=C(c2nc(-c3ccc(F)cc3)cs2)C(Cc2ccccc2)NC(=O)N1 (centres unmarked) [Example 89],≥ 100 µM,> 100 µM,D (D < 10.0),,D (D < 10.0),> 100 µM,≥ 100 µM,≥ 100 µM,≥ 100 µM,D (D < 10.0),> 100 µM,5 to 100 µM,D (D < 10.0)
CC1=C(c2nc(-c3ccc(C#N)cc3)cs2)C(c2ccc(Br)nc2)NC(=O)N1 (centres unmarked) [Example 93],≥ 100 µM,> 100 µM,D (D < 10.0),,A (A = TI (TC50/IC50) ≧ 100.0),< 1 µM,≥ 100 µM,≥ 100 µM,≥ 100 µM,A (A = TI (TC50/IC50) ≧100.0),< 1 µM,< 1 µM,A (A = TI (TC50/IC50) ≧ 100.0)
